Data reported in patent US9309247B2, “2-substituted imidazo[4,5-D]phenanthroline derivatives and their use in the treatment of cancer” (Aptose Biosciences Inc., priority 2013, dated 2016).

Experiments:
[1] = system: human colon carcinoma cells HT-29; test: XTT cell proliferation assay, HT-29; type: cell-based; conditions: 5 days incubation, read-out: Antiproliferative activity, Colon HT-29
Description: (§1) Exemplary compounds 1-8 were tested for anti-cancer activity in vitro using human renal cancer cells (ACHN and CAK-1), human pancreatic cells (BXPC3 and SU-86-86), human prostate cancer cell (DU14), human colon carcinoma cells (HT-29 and KM-12), leukemia cells (HL60), brain cancer/tumour cells (SK-A-AS, U87-MG), and human non-small cell lung cancer cells (H460). Compounds 1-8 are the specific embodiments of Formula (I) and Formula (IV) as described above in this application.
(§2) The cells were maintained as a monolayer in a growth medium; McCoy's 5A modified medium (Sigma, St. Louis, Mo.), supplemented with 2 mM L-glutamine (Gibco, Grand Island, N.Y.), 10% fetal bovine serum (FBS) (Multicell, WISENT Inc. St-Bruno, QC), antibiotic-antimycotic (Multicell), at 37° C. in a 5% CO2-humidified incubator. Cells were transferred onto 150 mm tissue culture plates and grown until sub-confluency (70-80%) prior to their use. The in vitro antiproliferative activity of compounds was evaluated by incubating the cells with varying concentrations of exemplary compounds as shown in Table 1 for 5 days. The efficacy of these compounds in this cell proliferation assay was measured based in the ability of live cells to reduce the tetrazolium salt XTT to orange colored compounds of formazan (XTT cell proliferation kit IT, Roche Applied Science, Montreal, QC).

[2] = system: pancreatic cancer (BxPC-3); test: Pancreatic cancer (BxPC-3) xenograft model; type: in vivo, CD-1 female nude mice; conditions: pancreatic carcinoma BxPC-3; vs vehicle-treated control; FIG. 5
Description: (§3) The ability of compound 1 to inhibit colon tumour growth in vivo was tested as follows. CD-1 female nude mice (7 mice per treatment group, 6-7 weeks) were injected […] with human colon adenocarcinoma cells HT-29 cells (3×10^6 cells in 0.1 ml PBS). Treatment of the mice with vehicle or 50 mg/kg/d of […] was initiated 5 days post-inoculation (size of tumours=20-40 mm^3) for 7-day cycles of five days followed by a 2 day break for 5 weeks. The size of the tumours was measured over the course of the experiment using calipers, and the weight of the tumours was measured after the animals were sacrificed.
(§4) The ability of compound 1 to inhibit renal cell carcinoma growth (see FIG. 4), to inhibit pancreatic carcinoma growth (FIG. 5), to inhibit large-cell lung carcinoma cell growth (FIG. 6), and to inhibit Glioblastoma cell growth (FIG. 7) was also tested following the general procedure as discussed above.

[3] = system: non-small cell lung cancer cells H226; test: XTT cell proliferation assay, H226; type: cell-based, human; conditions: 5 days incubation, read-out: Antiproliferative activity, NSCLC H226
Description: [The procedure below names another cell line; the source lists this cell line under the same test.] as §1, §2

[4] = system: brain cancer/tumour cells U87-MG; test: XTT cell proliferation assay, U87-MG; type: cell-based, human; conditions: 5 days incubation, read-out: Antiproliferative activity, Brain U87-MG
Description: as §1, §2

[5] = system: Human Burkitt's lymphoma Raji cells; test: Cell growth inhibition assay, Raji; type: cell-based; conditions: five days of incubation, XTT; read-out: IC50 Raji (hs)
Description: (§5) In this study, compounds 1-8 were screened in vitro against a panel of four mouse lymphoma cell lines and two human lymphoma cell line for cell growth inhibition activity. Following treatment, half maximal inhibitory concentrations (IC50) were determined with the objective of selecting the most efficacious compounds for evaluation of in vitro absorption, distribution, metabolism, and excretion (ADME) screening.
Human Burkitt's lymphoma Raji cells (ATCC CCL-86) were grown in suspension in Roswell Park Memorial Institute (RPMI) 1640 medium supplemented with 10% fetal bovine serum (FBS), 10 mM HEPES KOH pH 7.4, and 2 mM sodium pyruvate at 37° C. in an atmosphere of 5% CO2 in air. Logarithmically growing cells were routinely sub-cultured twice weekly. Briefly, cells were collected by centrifugation, resuspended in pre-warmed media, and diluted 1:10 into a 75 cm^2 flask.
(§6) Cells were subcultured and 4×10^3 cells (in 50 μL) were transferred to each well in a Falcon 96-well tissue culture plate. Exemplary compounds were dissolved in pure dimethyl sulphoxide (DMSO) at a concentration of 10 mM. From this 10 mM stock solution, 12 successive serial dilutions were made in DMSO (2.5 fold dilutions), ranging from 0.52 μM to 10 mM. Using these stock dilutions, 5 μL of each were added to 500 μL of media, and 50 μL of this was added to the cells. The final concentrations being tested ranged from 0.0026 μM to 50 μM. Each concentration was tested in triplicate, and DMSO and untreated cells were also included as controls. After five days of incubation with the compounds, cell viability was determined using the XTT cell proliferation kit (Roche, Cat. No. 11 465 015 001). Following the XTT protocol, 4.5-24 hours after addition of the reagent, the plates were read in a μQuant 96-well plate spectrophotometer (Biotek Instruments Inc.) and the results analyzed to determine the IC50.

EL4 (mouse, lymphoma) = test: Cell growth inhibition assay, EL4; type: cell-based; conditions: five days of incubation, XTT; read-out: IC50 EL4 (ms)
Description: as §5
Similarly, human Burkitt's lymphoma Ramos cells (ATCC CRL-1596) were grown in suspension in Roswell Park Memorial Institute (RPMI) 1640 medium supplemented with 10% fetal bovine serum (FBS), 10 mM HEPES KOH pH 7.4, and 2 mM sodium pyruvate. Mouse P388D1 (ATCC CCL-46) and WR19L (ATCC TIB-52) cells were grown in suspension in Dulbecco's Modified Eagle Medium (DMEM) with 10% fetal bovine serum (FBS), 10 mM HEPES, and 2 mM sodium pyruvate. Mouse WEHI231 (ATCC CRL-1702) and EL4 (ATCC TIB-39) cells were grown in suspension in DMEM with 10% fetal bovine serum (FBS), 10 mM HEPES KOH pH 7.4, 2 mM sodium pyruvate, and 0.05 mM β-mercaptoethanol. All cells were maintained at 37° C. in an atmosphere of 5% CO2 in air. Logarithmically growing cells were routinely sub-cultured twice weekly. Briefly, cells were collected by centrifugation, resuspended in pre-warmed media, and diluted 1:10 into a 75 cm^2 flask.
as §6

[6] = system: human colon adenocarcinoma cells HT-29; test: Colon carcinoma (HT-29) xenograft model; type: in vivo, CD-1 female nude mice; conditions: 50 mg/kg/d, five days on, 2 day break, 5 weeks, vs vehicle-treated control, FIG. 1
Description: as §3

[7] = system: non small cell lung cancer (H460); test: Non small cell lung cancer (H460) xenograft model; type: in vivo, CD-1 female nude mice; conditions: large-cell lung carcinoma H460; vs vehicle-treated control; FIG. 6
Description: as §3, §4

[8] = system: non-small cell lung cancer cells HOP-92; test: XTT cell proliferation assay, HOP-92; type: cell-based, human; conditions: 5 days incubation, read-out: Antiproliferative activity, NSCLC HOP-92
Description: [The procedure below names another cell line; the source lists this cell line under the same test.] as §1, §2

[9] = system: human prostate cancer cell DU14; test: XTT cell proliferation assay, DU14; type: cell-based; conditions: 5 days incubation, read-out: Antiproliferative activity, Pros. DU14
Description: as §1, §2

Glioblastoma (U87-MG) = Glioblastoma (U87-MG) xenograft model; type: in vivo, CD-1 female nude mice; conditions: vs vehicle-treated control, FIG. 7
Description: as §3, §4

IC50 [1]: 350 nM
IC50 [3]: 410 nM
IC50 [4]: 190 nM
IC50 [5]: 153 nM
IC50 (EL4 (mouse, lymphoma)): 483 nM
IC50 [8]: 160 nM
IC50 [9]: 170 nM
SMILES: FC1(F)Oc2ccc(-c3nc4c5cccnc5c5ncccc5c4[nH]3)cc2O1 [Compound 1]
inhibition of tumour growth, as measured by tumour size [2]: able to inhibit tumour growth
inhibition of tumour growth, as measured by tumour size [6]: able to inhibit tumour growth
inhibition of tumour growth, as measured by tumour size [7]: able to inhibit tumour growth
inhibition of tumour growth, as measured by tumour size (Glioblastoma (U87-MG)): able to inhibit tumour growth
